Assay [1] has as its system CABG patients. In words: Post-CABG Trial: serum lipid levels and lovastatin dose needed, by treatment group or LPL HindIII genotype. The format is in vivo, human. How it is done:
(§1) Participants were randomly assigned, following a two by two design, to receive 1) lovastatin therapy to lower the LDL-cholesterol level to within the range of 93-97 mg/dl (aggressive treatment group) or 132-136 mg/dl (moderate treatment group), and 2) placebo or low-dose warfarin (Post-CABG, 1997). Coronary angiograms of 1351 subjects at enrollment and an average of 4.3 years later were compared using a quantitative assessment of the severity of graft stenosis. Graft worsening was defined as a decrease in lumen diameter of 0.6mm or more. The percentage of subjects with worsening of one or more grafts was 39% in the aggressive treatment group compared to 51% in the moderate treatment group (p<0.00 1) and the mean percentage of grafts per patient showing worsening was 27% in the aggressive treatment group compared to 39% in the moderate treatment group (p<0.001).
(§2) A total of 1351 subjects from seven clinical centers throughout North America were included in the clinical trial and all were eligible as participants. Genetic material was received from 891 subjects who were included in this ancillary study. Inclusion criteria for the clinical trial were: bypass surgery 1 -11 years prior to the study; an LDL-cholesterol level of 130-175 mg/dl; and at least one patent vein graft as determined by angiography. Subjects were excluded if there was: (a) the likelihood of revascularization or death within the study period of 5 years; (b) unstable angina or myocardial infarction within six months before the start of the trial; (c) severe angina; (d) heart failure; or (e) contraindications to the study medications. Id. Subjects were randomly assigned in a two by two factorial design for treatment to lower LDL-cholesterol levels aggressively (target LDL 93-97 mg/dl) or moderately (target LDL 132-136 mg/dl) with lovastatin and cholestyramine if needed, and for treatment with either placebo or warfarin sufficient to maintain an international normalized ratio of less than 2. Id. Graft worsening was determined by comparing the initial angiogram at enrollment with a follow-up angiogram repeated an average of 4.3 years later. “Worsening” was defined as a reduction in diameter ≧0.6mm in diameter. “Subjects with worsening” were defined as those subjects with one or more grafts showing worsening.
(§3) Differences in baseline characteristics between treatment groups and between genotype groups were tested by one-way analysis of variance or Chi-square tests. Log-transformed HDL and TG values were used to perform all statistical analyses in order to adjust for their skewed distributions, but are presented in the tables as untransformed means ±SE. The association between graft worsening and LPL genotype was tested by Chi-square test. Mantel-Haenszel statistics were used for testing the interactions between genotypes and treatment groups. The proportion of grafts showing worsening per subject was used as the quantitative measurement of graft worsening, and multiple regression was performed to for this proportion as a function of genotype and treatment group to identify predictors. Adjusted variables for this trait included age, gender, body mass index, smoking status, number of years since CABG, systolic and diastolic blood pressure, current medicine use, and family history as listed in Table 1. All statistical analyses were carried out with SAS software (version 6.12, SAS Institute, Cary, N.C.).
To investigate potential mechanisms for the association between the LPL HindIII 2/2 genotype and graft worsening, baseline characteristics and response of the subjects to the lipid-lowering action of lovastatin were compared between subjects (Table 3). There were no differences observed between the baseline values for total cholesterol, HDL-cholesterol, and triglycerides. However, a small difference in LDL-cholesterol was observed, 159.6±2.1 mg/dl for subjects with HindIII 2/2 compared with 155.0±0.7 for 1/1 and 1/2, p=0.04. […]

The subject of assay [2] is CABG patients (saphenous-vein coronary-artery bypass grafts). The following applies: cited from earlier work; for percentage of subjects with worsening of one or more grafts: 1351 subjects, average 4.3 years.
The test system is the same in assay [3]. In words: Post-CABG Trial: angiographic graft worsening under lovastatin (aggressive vs moderate) and warfarin. The format is in vivo, human. On the procedure:
A genetic association study was conducted by a within-case comparison ancillary to the Post Coronary Artery Bypass Graft Trial. (The Post Coronary Artery Bypass Graft Trial Investigators. The effect of aggressive lowering of low-density lipoprotein cholesterol levels and low-dose anticoagulation on obstructive changes in saphenous-vein coronary-artery bypass grafts, N. Engl. J. Med. 336:153-62 [1997]). A two stage design was followed. First, EBV-transformed lymphoblastoid cell lines were established for subjects from the Los Angeles (L.A.) cohort providing a permanent source of DNA for testing hypotheses related to atherosclerosis-related candidate genes. Then, significant results were tested in a second stage by genotyping all available subjects in the post-CABG trial using DNA isolated from whole blood shipped to Cedars-Sinai Medical Center from the other participating centers.
as §1, §2
as §3, with “Adjusted variables for this trait included age, gender, body mass index, smoking status, number of years since CABG, systolic and diastolic blood pressure, current medicine use, and family history as listed in Table 1. All statistical analyses were carried out with SAS software (version 6.12, SAS Institute, Cary, N.C.).” left out

[4] abbreviates: Aggressive treatment group (N = 430), mean ± SE.
[5] abbreviates: LPL HindIII 1/1 & 1/2 genotype (N = 817).
Setting [6] is: LPL HindIII 2/2 genotype (N = 74).
The mark [7] stands for this setting: Moderate treatment group (N = 406), mean ± SE.

The values that follow come from patent publication US20020106657A1, “Genetic test to determine non-responsiveness to statin drug treatment” (priority 1999, published 2002).

Values joined by “and” are separate entries in the source; they are usually repeats but may differ in a detail not shown here. Equal values may be shown once. Read-outs that look alike come from different tables or passages of the source.

Regarding `CC[C@H](C)C(=O)O[C@H]1C[C@@H](C)C=C2C=C[C@H](C)[C@H](CC[C@@H]3C[C@@H](O)CC(=O)O3)[C@H]21` [lovastatin], the “Steady state lipid levels: HDL cholesterol” value in assay [1] (setting [4]) was found to be 44.9 ± 0.6 mg/dL; in assay [1] (setting [5]), 44.1 ± 0.4 mg/dL; in assay [1] (setting [6]), 46.7 ± 1.6 mg/dL; in assay [1] (setting [7]), 43.7 ± 0.6 mg/dL. Further, the “Steady state lipid levels: LDL cholesterol” value in assay [1] (setting [4]) stood at 97.1 ± 1.3 mg/dL; in assay [1] (setting [5]), 114.7 ± 1.1 mg/dL; in assay [1] (setting [6]), 115.1 ± 4.3 mg/dL; in assay [1] (setting [7]) it was 133.0 ± 1.3 mg/dL. For the same compound, the “Steady state lipid levels: Total cholesterol” value in assay [1] (setting [4]) is 172.6 ± 1.6 mg/dL; in assay [1] (setting [5]), 191.0 ± 1.3 mg/dL; in assay [1] (setting [6]), 191.1 ± 4.8 mg/dL; in assay [1] (setting [7]) it was 209.5 ± 1.6 mg/dL. The “Steady state lipid levels: Triglycerides” value in assay [1] (setting [4]) is 157.4 ± 4.5 mg/dL; in assay [1] (setting [5]) it was 163.6 ± 3.4 mg/dL; in assay [1] (setting [6]), 151.0 ± 9.6 mg/dL; in assay [1] (setting [7]), 164.5 ± 4.4 mg/dL. Moreover, the “Lipid change: HDL cholesterol” value in assay [1] (setting [5]) came to 14.2 ± 1.0%; in assay [1] (setting [6]), 14.1 ± 3.1%. Moreover, the figures for the “Lipid change: LDL cholesterol” value in assay [1] (setting [5]) and in assay [1] (setting [6]) were 45.1 ± 1.5% and 53.5 ± 6.9%, respectively. Also, the “Lipid change: Total cholesterol” value in assay [1] (setting [5]) is listed as 15.2 ± 0.6%; in assay [1] (setting [6]), 16.9 ± 2.0%. In addition, the results for the “Lipid change: Triglycerides” value in assay [1] (setting [5]) and in assay [1] (setting [6]) were 8.2 ± 2.0% and 6.0 ± 5.8%, respectively. In addition, the “percentage of patients with atherosclerotic worsening of grafts within 4 years” value in assay [2] (aggressive lovastatin treatment (LDL-C lowered to 93-97 mg/dl)) is 39%; in assay [2] (moderate lovastatin treatment (LDL-C lowered to 132-136 mg/dl)) it was 51%. For the same compound, the “percentage of subjects with worsening of one or more grafts” value is recorded as 39% in assay [2] (aggressive treatment group, worsening = lumen diameter decrease 0.6 mm or more) and 51% in assay [2] (moderate treatment group). The “mean percentage of grafts per patient showing worsening” value in assay [2] (aggressive treatment group) is 27%; in assay [2] (moderate treatment group) it was 39%. For the same compound, the “number of patients who required a second CABG procedure, lower than in moderate-treatment group” value in assay [2] (aggressive vs moderate lovastatin treatment group) is reported as 29%. Further, the “percent of subjects with graft worsening” value in assay [3] (HindIII 1/1 and 1/2 genotype, moderate drug treatment group) was found to be 49%; in assay [3] (HindIII 1/1 or 1/2 genotype, aggressive lipid-lowering treatment group), 35%; in assay [3] (HindIII 2/2 genotype, aggressive treatment group), 54%; in assay [3] (HindIII 2/2 genotype, moderate lipid-lowering treatment group), 65%. In assay [3] (HindIII 2/2 plus moderate lipid-lowering, 95% CI 1.4-8.7), the “odds ratio for graft worsening, combined unfavorable LPL HindIII genotype with moderate drug treatment” value is listed as 3.5. For the same compound, the “odds ratio, effect of treatment on graft worsening” value in assay [3] (adjusted for / stratified by LPL HindIII genotype, 95% CI 1.32-2.4) is 1.78 and 1.8. Moreover, in assay [3] (within LPL HindIII 1/1 and 1/2 genotype group, 95% CI 1.3 to 2.4), the “odds ratio for graft worsening, moderate vs aggressive drug treatment” value stood at 1.8.

Take `CC(=O)CC(c1ccccc1)c1c(O)c2ccccc2oc1=O` (stereo not drawn) [warfarin]: the “effect of the warfarin treatment on graft worsening” value in assay [2] (low-dose warfarin vs placebo) was “No effect”.
